From patent US20200338028A1, “BENZENESULFONAMIDE DERIVATIVES AND METHOD FOR MODULATING LIPID RAFT” (Gongwin Biopharm Co., Ltd., priority 2017, published 2020)

Tests used:
Format in all cases: cell-based, human
[1] = test system: PC-3 cells; experiment: JC-1 staining, mitochondrial membrane potential; conditions: PC-3, 24 h, JC-1, FIG. 2B
Procedure: (§1) Mitochondria generate the majority of ATP to synthesize bioactive components such as proteins, lipids and nucleotides for cell growth and proliferation. The stress onto mitochondria and interference with ATP production have shown to induce cell cycle arrest. Measurement of mitochondrial membrane potential (ΔΨm) was performed as follows. JC-1, a mitochondrial dye staining mitochondria in living cells in a membrane potential-dependent fashion, was used to determine the mitochondrial membrane potential (ΔΨm). PC-3 and DU145 cells were treated with or without p-TSA. Thirty minutes before the termination of incubation, the cells were incubated with JC-1 (final concentration of 5 μM) at 37° C. for 30 min. The cells were finally harvested, and the accumulation of JC-1 was determined using flow cytometric analysis. […] An increase in the permeability of the outer mitochondrial membrane that leads to the release of apoptogenic factors is the key to cell apoptosis. Mitochondrial membrane permeability is directly controlled by Bcl-2 family of proteins.

[2] = test system: DU-145 cells; experiment: JC-1 staining, mitochondrial membrane potential; conditions: DU-145, 24 h, JC-1, FIG. 2B
Procedure: as §1

[3] = test system: PC-3 cells; experiment: propidium iodide staining, cell cycle distribution by flow cytometry; conditions: PC-3, 24 h, FIG. 2A
Procedure: (§2) Flow cytometric analysis was performed as follows. Cells were harvested by trypsinization, fixed with 70% (v/v) alcohol at 4° C. for 30 min and washed with PBS. After centrifugation, the cells were incubated in phosphate-citric acid buffer (0.2 mol/l NaHPO4, 0.1 mol/l citric acid, pH 7.8) for 30 min at room temperature. The cells were then centrifuged and resuspended with 0.5 ml propidium iodide (PI) solution containing Triton X-100 (0.1% v/v), RNase (100 μg/ml) and PI (80 μg/ml). DNA content was analyzed with the FACScan and CellQuest software (Becton Dickinson, Mountain View, Calif., United States).

[4] = test system: DU-145 cells; experiment: as above; conditions: DU-145, 24 h, FIG. 2A
Procedure: as §2

Cc1ccc(S(N)(=O)=O)cc1 [p-TSA, para-toluenesulfonamide]
mitochondrial membrane potential [1]: concentration-dependent decrease | mitochondrial membrane potential [2]: concentration-dependent decrease | cell apoptosis [3]: accelerated cell apoptosis | distribution of cell populations in cell cycle phases [3]: accumulation of both PC-3 cells and DU-145 cells in G1 phase | cell apoptosis [4]: accelerated cell apoptosis | distribution of cell populations in cell cycle phases [4]: accumulation of both PC-3 cells and DU-145 cells in G1 phase
